What was measured:
Type in all cases: cell-based, human
1BR3 cells = assay: Micronuclei per 100 cells 24 h after contacting, 1BR3
Method: (§1) In one embodiment, on receipt, the tissue sample (typically the biopsy) is established in the form of an amplifiable cell line without a viral or chemical transformation agent according to an ancillary procedure well known to culture laboratories, as underlined by the publication of Elkind et al. “The radiobiology of cultured mammalian cell”, Gordon and Breach (1967). Once the number of cells is sufficient (typically after 1 to 3 weeks), the first experiments are carried out using the process according to the invention. A cell sample is prepared: The cells are inoculated on glass coverslips in Petri dishes. A portion of these coverslips are contaminated with metals or pesticides or any other DNA-breaking chemical or biochemical agent at different concentrations. A further portion is not contaminated; it represents the spontaneous state. During contamination, the cells remain in the culture incubator at 37° C.
(§2) the cells are fixed in 3% paraformaldehyde and 2% sucrose for 15 minutes at ambient temperature and permeabilized in 20 mM HEPES buffer solution (4-(2-hydroxyethyl)-1-piperazine ethane sulfonic acid) at pH 7.4, 50 mM NaCl, 3 mM MgCl2, 300 mM sucrose, 0.5% Triton X-100 (a non-ionic surfactant having the formula t-Oct-C6H4-(OCH2CH2)×OH where x=9-10, CAS No. 9002-93-1, supplied for example by Sigma Aldrich) for 3 minutes. The glass coverslips are then washed in phosphate buffer saline (known as the acronym PBS) before immunological staining. The incubation took place for 40 min at 37° C. in PBS supplemented with 2% bovine serum albumin (known as the acronym BSA or fraction V, supplied for example by Sigma Aldrich) and was followed by a wash with PBS. Anti-pH2AX primary antibodies are used at a concentration of 1:800. The incubations with anti-mouse FITC or anti-rabbit TRITC secondary antibodies (1:100, supplied by Sigma Aldrich) were performed at 37° C. in 2% BSA for 20 minutes. Glass coverslips were treated with Vectashield™ containing DAPI (4,6-Diamidino-2-phenylindole) to label the nucleus. Staining with DAPI also makes it possible, indirectly, to determine the number of cells in phase G1 (nuclei with homogenous DAPI staining), in phase S (nuclei with numerous pH2AX foci), in phase G2 (nuclei with heterogeneous DAPI staining) and metaphases (visible chromosomes).
(§3) Counterstaining with DAPI (a DNA marker known to those skilled in the art) makes it possible to locate the nucleus to situate the cytoplasmic or nuclear location to quantify the micronuclei, which are complementary cell markers to the data on the foci.
(§4) The tables hereinafter summarize the results of numerous experiments which were carried out as described in the “Detailed description” section above.
(§5) In tables 3 and 4, “pH2AX” corresponds to the mean number of nuclear foci obtained with the marker pH2AX, 24 hours after contacting the cell sample with the chemical agent at the concentration C (NpH2AX(24 h, C)), and where “Micronuclei” corresponds to the mean number of micronuclei observed per 100 cells 24 hours after contacting the cell sample with the chemical agent at the concentration C(NMN(24 h, C)).

1BR3 (control cells) = assay: pH2AX foci immunofluorescence 24 h after contacting, 1BR3 control fibroblasts; conditions: 1BR3, 24 hours after contacting (Table 3)
Method: as §1
(§6) For the contaminated cells, characteristics are acquired corresponding to the state after an incubation time with the DNA-breaking chemical or biochemical agent. Said characteristics are represented by foci corresponding to the marker pH2AX. The cells on glass coverslips are then fixed, lysed and hybridized. The following procedure, known per se (Bodgi et al, “A single formula to describe radiation-induced protein relocalization: towards a mathematical definition of individual radiosensitivity”, J Theor Biol. 21 p 333:135-45.2013):
as §2
(§7) The results are acquired using these coverslips on an immunofluorescence microscope (Olympus model for example). The reading may be direct (typically by counting the foci on at least 50 cells in G0/G1 for each point) or using dedicated image analysis software, or on an automated microscope; preferably the software or automated microscope methods are calibrated with manual determinations.
Commercial 1BR3 and 149 BR control fibroblasts were amplified according to the recommendations of the supplier (SIGMA-ALDRICH) until the number of cells sought was obtained. After obtaining a sufficient number of cells (generally after one to 3 weeks), the first experiments were conducted using the process according to the invention. The cells were inoculated on glass coverslips in Petri dishes.
The acquisition of the results was carried out using these coverslips on an immunofluorescence microscope (Olympus model). The reading was performed directly by counting the foci obtained with the marker pH2AX on at least 50 cells in G0/G1 for each point or using dedicated image analysis software (imageJ). […]

HMEC cells [1] = assay: pH2AX foci 24 h after contacting, Table 4 lower part (HMEC endothelial cells); conditions: line cell blank (below Hasp), 24 hours after contacting
Method: as §1, §6, §2, §7, §4, §5

HMEC cells [2] = assay: Micronuclei per 100 cells 24 h after contacting, Table 4 lower part (HMEC); conditions: line cell blank (below Hasp)
Method: as §1, §2, §3, §4, §5

Ha (astrocyte cells) [3] = assay: Micronuclei per 100 cells 24 h after contacting, Ha astrocyte cells
Method: as §1, §2, §3, §4, §5
(§8) Table 4 presents a detection of number of pH2AX foci and number of micronuclei 24 hours after contacting control nervous system cell lines Ha (astrocyte cells), Hah (hippocampus astrocyte cells) and Hasp (spinal cord astrocyte cells) with a metallic compound (AlCl3, Cu, CuCl2, CuSO4, Pb(NO3)2, CdCl2, Cd-acetate or Cd-acetate-citrate) according to the concentration of said metallic compound used.

[4] = system: Hasp (spinal cord astrocyte cells); assay: Micronuclei per 100 cells 24 h after contacting, Hasp
Method: as §1, §2, §3, §4, §5, §8

[5] = system: Hah (hippocampus astrocyte cells); assay: pH2AX foci 24 h after contacting, Hah hippocampus astrocyte cells
Method: as §1, §6, §2, §7, §4
(§9) In tables 3 and 4, “pH2AX” corresponds to the mean number of nuclear foci obtained with the marker pH2AX, 24 hours after contacting the cell sample with the chemical agent at the concentration C (NpH2AX(24 h, C)), and where “Micronuclei” corresponds to the mean number of micronuclei observed per 100 cells 24 hours after contacting the cell sample with the chemical agent at the concentration C(NMN(24 h, C)). […]

[6] = system: Hah (hippocampus astrocyte cells); assay: Micronuclei per 100 cells 24 h after contacting, Hah
Method: as §1, §2, §3, §4, §5, §8

[7] = system: Hasp (spinal cord astrocyte cells); assay: pH2AX foci 24 h after contacting, Hasp spinal cord astrocyte cells
Method: as §1, §6, §2, §7, §4, §9

Ha (astrocyte cells) [8] = assay: pH2AX foci 24 h after contacting, Ha astrocyte cells; conditions: Ha, 24 hours after contacting
Method: as §1, §6, §2, §7, §4, §9

Work on Oc1c(Cl)c(Cl)c(Cl)c(Cl)c1Cl [PCP] yielded a Micronuclei (1BR3 cells; 0.3 μM) of 2 per 100 cells, a Micronuclei (1BR3 cells; 3 μM) of 4 per 100 cells and a Micronuclei (1BR3 cells; 10 μM) of 10 per 100 cells. It also gave a Micronuclei (1BR3 cells; 50 μM) of 10 per 100 cells, a Micronuclei (1BR3 cells; 100 μM) of 20 per 100 cells and a pH2AX (1BR3 (control cells); 0.3 μM) of 1.2 foci. It also gave a pH2AX (1BR3 (control cells); 10 μM) of 1.5 foci, a pH2AX (1BR3 (control cells); 30 μM) of 1.9 foci and a pH2AX (1BR3 (control cells); 100 μM) of 4.3 foci.

Molecule Cd-acetate-citrate has a pH2AX (HMEC cells [1]; 10 μM) of 1 foci, a pH2AX (HMEC cells [1]; 30 μM) of 4.75 foci and a pH2AX (HMEC cells [1]; 100 μM) of 7 foci.

O=S(=O)([O-])[O-].[Cu+2] [CuSO4] was tested, and the Micronuclei (HMEC cells [2]; 3 μM) was 3 per 100 cells, the Micronuclei (HMEC cells [2]; 10 μM) was 5 per 100 cells and the Micronuclei (HMEC cells [2]; 30 μM) was 4.7 per 100 cells. It also gave a Micronuclei (HMEC cells [2]; 100 μM) of 5.3 per 100 cells, a Micronuclei (HMEC cells [2]; 300 μM) of 9.3 per 100 cells and a Micronuclei (HMEC cells [2]; 1000 μM) of 4 per 100 cells. It also gave a pH2AX (HMEC cells [1]; 3 μM) of 1.9 foci, a pH2AX (HMEC cells [1]; 10 μM) of 2.3 foci and a pH2AX (HMEC cells [1]; 30 μM) of 3.4 foci. The pH2AX (HMEC cells [1]; 100 μM) was 6.4 foci, the pH2AX (HMEC cells [1]; 300 μM) was 20.1 foci and the pH2AX (HMEC cells [1]; 1000 μM) was 30.2 foci.

[Cu] [Cu] gave a Micronuclei (Ha (astrocyte cells) [3]; 10 μM) of 4 per 100 cells, a Micronuclei (Ha (astrocyte cells) [3]; 30 μM) of 5 per 100 cells and a Micronuclei (Ha (astrocyte cells) [3]; 100 μM) of 13 per 100 cells. It also gave a Micronuclei (Ha (astrocyte cells) [3]; 300 μM) of 20 per 100 cells, a Micronuclei (Ha (astrocyte cells) [3]; 1000 μM) of 50 per 100 cells and a Micronuclei ([4]; 10 μM) of 4 per 100 cells. For the same molecule, the Micronuclei ([4]; 30 μM) was 7 per 100 cells, the Micronuclei ([4]; 100 μM) was 9 per 100 cells and the Micronuclei ([4]; 300 μM) was 10 per 100 cells. It also gave a Micronuclei ([4]; 1000 μM) of 16 per 100 cells, a pH2AX ([5]; 10 μM) of 1.01 foci and a pH2AX ([5]; 30 μM) of 1.87 foci. It also gave a pH2AX ([5]; 100 μM) of 2.62 foci, a pH2AX ([5]; 300 μM) of 5.45 foci and a pH2AX ([5]; 1000 μM) of 6.61 foci. The Micronuclei ([6]; 10 μM) was 6 per 100 cells, the Micronuclei ([6]; 30 μM) was 10.7 per 100 cells and the Micronuclei ([6]; 100 μM) was 20.7 per 100 cells. For the same molecule, the Micronuclei ([6]; 300 μM) was 46.7 per 100 cells, the Micronuclei ([6]; 1000 μM) was 73.3 per 100 cells and the pH2AX ([7]; 10 μM) was 0.29 foci. The pH2AX ([7]; 30 μM) was 0.64 foci, the pH2AX ([7]; 100 μM) was 1.13 foci and the pH2AX ([7]; 300 μM) was 1.78 foci. For the same molecule, the pH2AX ([7]; 1000 μM) was 2.36 foci, the pH2AX (Ha (astrocyte cells) [8]; 10 μM) was 0.3 foci and the pH2AX (Ha (astrocyte cells) [8]; 30 μM) was 0.62 foci. The pH2AX (Ha (astrocyte cells) [8]; 100 μM) was 2.55 foci, the pH2AX (Ha (astrocyte cells) [8]; 300 μM) was 0 foci and the pH2AX (Ha (astrocyte cells) [8]; 1000 μM) was 0 foci.

Reference: patent US20180238860A1, “INDIVIDUAL METHOD PREDICTIVE OF THE DNA-BREAKING GENOTOXIC EFFECTS OF CHEMICAL OR BIOCHEMICAL AGENTS” (priority 2015, published 2018)
